How the values were obtained:
[1] = system: cortical neurones in the presence of astrocytes in culture; assay: Prior cytotoxicity, microscopic observation after 48 hours; type: cell-based; details: 100 μM, 48 hours incubation
Procedure: (§1) • Cell type: Initial culture of cortical neurones from 14 day rat embryos and initial culture of cortical astrocytes from newborn rats. • Culture medium: DMEM-Ham F12 (Invitrogen 21331020) • B27 2% (invitrogen 17504044) • L-glutamine 2 mM (Invitrogen 25030024) • Penicillin 50 UI/ml—Streptomycin 50 μg/ml (Invitrogen 15070063) • Nerve Growth Factor 10 ng/ml (NGF, Invitrogen 13290.010) • Survival medium: MEM (Invitrogen 21090022) • L-glutamine 2 mM (Invitrogen 25030024) • Penicillin 50 UI/ml—Streptomycin 50 μg/ml (Invitrogen 15070063) • Supplement N2 (Invitrogen 17502-048) 1.2 Prior Cytotoxicity • Platelets: 96 wells • Culture time: 8 days • Cells/well: cortical neurones+astrocytes • Product range: from 100 μM then ratio 3 • Replicates: 3 • Cell/product contact: 48 hours • Evaluation parameters: microscopic observation and MTT hydrolysis. • MTT: 3-(4,5-dimethylthiozol-2-yl)-2,5-diphenyltetrazolium bromide 1.3 Treatment and Analysis of the Network of Extensions Marked with Antineurofilament Antibody
A first experiment was carried out (conventional test used to measure the level of cell survival) in order to investigate the cytotoxicity of etifoxine in relation to cortical neurones in the presence of astrocytes in culture and thus to determine the maximum non-toxic concentration of etifoxine.

[2] = system: mixed cultures of rat cortical neurones and astrocytes; assay: Density of neuritic extensions marked by anti-neurofilament antibody, with or without excess glutamate; type: cell-based; details: for density of neurofilaments: control culture medium
From the text: The principle of the investigation consisted of evaluating the survival of cortical neurones in co-culture with astrocytes after the application of a neurotoxic agent, excess glutamate.
Neurone survival is quantified by the density of the system of neuritic extensions marked by an anti-neurofilament antibody in the absence or presence of glutamate.
as §1
The cortical neurones were obtained from the cortex of 14 day rat embryos cultured in platelet culture medium 96 and then in a stove at 37° C. and 5% CO2 with saturated humidity. After 2 days culture astrocytes obtained from newborn rat cortex were seeded in the wells (in a ratio of 1 astrocyte to 4 neurones). After 10 days culture the mature neurones synthesised neurofilaments (structural protein specific to mature neurones); in addition to this these neurones expressed functional receptors to glutamate on their surfaces and could therefore be intoxicated.
On the 12th day of culture the medium was replaced by survival medium with or without etifoxine in 3 concentrations and the neurones were or were not intoxicated with glutamate (Sigma G1501) at a strength of 2 mM and 10 mM. Each culture condition was applied to 4 wells. The cultures were incubated for 2 periods (6 and 24 hours).
A positive control was carried out in the survival culture medium containing Nerve Growth Factor (NGF; 10 ng/ml) and basic Fibroblast Growth Factor (FGFb; 5 ng/ml) and the cells were intoxicated under the same conditions.
At the end of the two incubation periods (6 and 24 hours) the cell layers were fixed and marked with a anti-68- and 200 kD neurofilament monoclonal antibody (DAKO M0762) and then developed using a mouse anti-immunoglobulin goat antibody conjugate Alexia fluor 488 (Interchim A-11029). Controls without primary antibody were performed. All the controls were negative (no non-specific labelling). After extensive washing with PBS the preparations were observed under epi-fluorescence (Nikon Diaphot 300 microscope).
2 images were obtained for each culture well (4 wells per experimental condition) using a Nikon DXM1200F camera controlled by LUCIA 6.0 software.
All the images were obtained under the same conditions and with identical camera settings.
The densities of the networks of extensions marked with anti-neurofilament antibody were examined using LUCIA 6.0 software. Initial image processing made it possible to increase the intensity of the specific marking on the extensions. Areas in which marking was positive were binarised and the percentage marking per image was determined (marked surface area/total surface area examined).
The results (mean values±standard error with respect to the mean (SEM) were expressed as percentage marking per microscope field (n=8 measurements/culture conditions). 2-factor analysis of variance (Etifoxine and glutamate), followed by the Student Newman-Keuls multiple comparisons test was used for statistical comparison of the results. […]

[3] = system: mice subjected to hypobaric hypoxia; assay: Hypobaric hypoxia in mice (survival time); type: in vivo, NMRI male mice; details: mice; for Percentage variation / Survival time in seconds (m ± sem): hypobaric hypoxia 160 mmHg
Procedure: 1.1 Hypobaric Hypoxia in Mice
NMRI male mice from Janvier weighing between 25 and 30 grams were used after acclimatisation in the animal house for at least 7 days (t°=22±2° C.; humidity 50±20%; feed UAR “A04” SAFE (Augy, France) and tap water ad libitum; 12 hour night and day cycle (light from 7 a.m. to 7 p.m.).
The unfasting […] were distributed at random into lots of 10.
The protocol of Nakaniski et al. (1973) Life Sciences, 13, 467-474 was adapted for the purposes of the model.
Each mouse was placed in a dessicator (hermetically sealed enclosure) in which atmospheric pressure was reduced from 760 to 160 mmHg using a water pump. This pressure reduction was carried out in one minute and caused death of the control animals in approximately 1 minute.
The survival time of the animal, which corresponded to the difference between the time to death of the mouse assessed by respiratory arrest less the time required to induce the hypoxia was then noted.
The products under investigation were administered intraperitoneally (i.p.) (0.1 ml/10 g), 30 minutes before inducing hypobaric hypoxia, or orally (0.1 ml/10 g p.o.) 1 hour before hypoxia.
Etifoxine hydrochloride was dissolved in 1% Tween 80. The potassium cyanide (Merck) was dissolved in 0.9% NaCl.
The statistical test used was a one-factor analysis of variance to determine the treated groups, which differed from the control group receiving the vehicle, at a threshold of 5%.

[4] = system: rats subjected to histotoxic hypoxia induced by potassium cyanide; assay: KCN (i.v.) hypoxia in rats (survival time); type: in vivo, Wistar male rats; details: rats, KCN 4 mg/kg i.v.

## CCNC1=Nc2ccc(Cl)cc2C(C)(c2ccccc2)O1.Cl (centres unmarked) [etifoxine, 6-chloro-2-ethylamino-4-methyl-4-phenyl-4H-[3,1]benzoxazine hydrochloride]
[1]
  astrocyte mortality, visual examination with a microscope: astrocyte mortality was observed
[2]; control culture medium (without glutamate), 6 hours, significant at 10 μM
  density of marked neurofilaments: increased the density of marked neurofilaments in a dose-dependent way
[2]; 24 hours, 10 μM
  density of neurofilaments: increased the density of neurofilaments
[2]; 24 hours, 1 and 3 μM
  density of neurofilaments: without effect
[2]; glutamate 2 mM, 24 hours, compound 10 μM
  density of neurofilaments in the presence of glutamate: opposed the effects of 2 mM of glutamate
[2]; glutamate 2 and 10 mM, 6 hours, compound 3 and 10 μM
  density of neurofilaments in the presence of glutamate: opposed the decrease in density of neurofilaments induced by glutamate
[3]; i.p. 3 mg/kg
  Percentage variation: +12%
  Survival time in seconds (m ± sem): 64.5 ± 3.4 s
[3]; i.p. 10 mg/kg
  Percentage variation: +15%
  Survival time in seconds (m ± sem): 66.1 ± 3.0 s
[3]; i.p. 30 mg/kg
  Percentage variation: +42%
  Survival time in seconds (m ± sem): 81.8 ± 4.6 s
[3]; i.p. 50 mg/kg
  Percentage variation: +141%
  Survival time in seconds (m ± sem): 138.5 ± 23.3 s
[3]; i.p. 75 mg/kg
  Percentage variation: +130%
  Survival time in seconds (m ± sem): 132.0 ± 21.6 s
[3]; p.o. 30 mg/kg
  Percentage variation: +47%
  Survival time in seconds (m ± sem): 81.5 ± 4.5 s
[3]; p.o. 100 mg/kg
  Percentage variation: +72%
  Survival time in seconds (m ± sem): 95.3 ± 5.6 s
[3]; p.o. 200 mg/kg
  Percentage variation: +79%
  Survival time in seconds (m ± sem): 99.5 ± 2.7 s
[3]; p.o. 300 mg/kg
  Percentage variation: +108%
  Survival time in seconds (m ± sem): 115.5 ± 8.6 s
[3]; hypobaric hypoxia, over 30 mg/1 kg i.p. or p.o.
  time to death: significantly increased the time to death
[4]; compound i.p. dose 30
  Percentage variation: +7%
  Survival time in seconds (m ± sem): 60.3 ± 2.0 s
[4]; compound i.p. dose 50
  Percentage variation: +90%
  Survival time in seconds (m ± sem): 107.3 ± 6.1 s
[4]; compound i.p. dose 75
  Percentage variation: +155%
  Survival time in seconds (m ± sem): 144.3 ± 11.5 s
[4]; compound p.o. dose 50
  Percentage variation: +7%
  Survival time in seconds (m ± sem): 59.5 ± 2.1 s
[4]; compound p.o. dose 100
  Percentage variation: +8%
  Survival time in seconds (m ± sem): 60.1 ± 1.2 s
[4]; compound p.o. dose 200
  Percentage variation: +15%
  Survival time in seconds (m ± sem): 63.9 ± 2.0 s
[4]; from 50 mg/kg i.p. and 200 mg/kg p.o.
  time to death: significantly increased the time to death

— patent US8338410B2, “Neuroprotective compounds and pharmaceutical compositions comprising them” (Biocodex, priority 2005, dated 2012)
